Assay results taken from US12023308B2, “Agents for reversing toxic proteinopathies” (THE BROAD INSTITUTE, INC., priority 2019, dated 2024).
“Also recorded” adds a separate entry of the source.

Key:
[1] = test system: N cells expressing P23H mutant rhodopsin; assay: Cell death (DRAQ7) in N cells expressing P23H mutant rhodopsin; format: cell-based, human; conditions: 5 μM, 72 hours
Procedure: To study apoptosis and cell death in N and P cells, 384 well Cell Carrier Ultra plates (6057308, Perkin Elmer), pre-coated with 0.25 mg/mL Synthemax II SC Substrate (3535, Corning) were used. For UPR branch activation experiments (FIGS. 2B, 9I, 9J and 9G) N and P cells were treated as described in the corresponding figure legends. CellEvent Caspase-3/7 Green Detection Reagent (C10423, Thermo Fisher Scientific®) and DRAQ7 (DR71000, Biostatus) were used at 1:5000 to monitor apoptosis and cell death respectively. Cells were imaged daily during 4 days to monitor viability and image analysis was performed as described below. For rescue experiments, P cells were plated on 96 well Cell Carrier Ultra microplates (6055302, Perkin Elmer) at 30,000 cells/well and cultured for 24 hr. […]
Caspase 3/7 activation and/or DRAQ7 staining were used to calculate the fraction of cells going through apoptosis and/or cell death, respectively. Single cells were first identified using the digital phase contrast channel and cell number was calculated. Fluorescence intensities were then measured and the threshold for Caspase 3/7 and DRAQ7 positive staining was determined. As an output, the fraction of live (neither caspase3/7 nor DRAQ7 signal detected), apoptotic (caspase3/7 positive) or dead cells (DRAQ7 positive) was calculated in each well at a particular time point.

[2] = Liver microsomes stability; format: in vitro ADME
Procedure: Stability was determined at 37° C. at 1 hour in liver microsomes. Each compound was prepared in duplicate at 1 μM in liver microsomes diluted 50/50 (v/v) with PBS pH 7.4. After addition of compounds to microsome mixture, the plate was sealed and vortexed and 100 µL of each sample was added to 3004 acetonitrile (with internal standard). Assay plate was incubated at 37° C. for 1 hr with a 350 rpm orbital shake, and following the hour 1004 of each sample was added to 300 μL acetonitrile (with internal standard). After quenching, samples were refrigerated for at least 1 hour. The samples were centrifuged (32×G) to pellet precipitated particulates and an aliquot of supernatant was diluted 50/50 (v/v) with water. The resulting solution was analyzed by UPLC-MS/MS with compounds detected by MRM detection on a triple quadrupole mass spectrometer. The compound peak areas in the 0 and 1 hour samples, -NADPH sample, and no compound control sample were compared to determine a percent remaining. Percent remaining in microsomes was calculated through the following equation: % remaining=[area (1 hr)/area (0 hr)]×100. (LC System, Waters Acquity I-Class; MS System, AB Sciex Triple Quad 4500; Column, Waters Acquity UPLC BEH C18, 1.7 μm, 2.1×50 mm; Mobile Phase A, Water with 0.1% formic acid; Mobile Phase B, Acetonitrile with 0.1% formic acid; Flow Rate, 0.90 mL/min; Column Temperature, 55° C.).

[3] = in vivo; conditions: mouse
Procedure: 1) A pharmacokinetic study was performed by WuXi AppTec (Hong Kong) in fasted male 129S2/SvPasCrl mice (study #400565-20170331-MPK) to determine the oral bioavailability of BRD-4780. A single dose of BRD-4780 was administered at 3.0 mg/kg intravenously (i.v.) or 10.0 mg/kg orally (p.o) in a clear solution of 10% HP-β-CD in saline. Blood was collected serially from n=3 mice per dose group at eight time points post dose administration (0.25, 0.5, 1, 2, 4, 6, 8 and 24 hours) and plasma was obtained by centrifugation. Plasma drug concentration was determined by LC-MS/MS and reported as BRD-4780 ng/mL for plasma and ng/mg for kidney tissue, and plotted as the mean±standard deviation concentration (FIG. 11A). Standard pharmacokinetic parameters were calculated (FIG. 11B).

[4] = test system: total MUC1 mRNA; assay: MUC1 transcription assay (RT-PCR profiling screen) in P cells; format: cell-based, human; conditions: P cells, 24 hours
Procedure: qPCR was performed using a previously described protocol (Bittker, 2012). P cells seeded at 2000 cells/well in 384-well, clear bottom, white wall plates were grown for 24 hr, then treated with profiling compounds transferred by pinning to duplicate plates. JQ1 (250 nM) and DMSO were used for controls as above. After 24 hr, cells were washed and cDNAs were made using ABI Cells-to-Ct kit (Thermo Fisher Scientific®, Waltham, Mass.). MUC1 and HMBS delta Cp values were determined using a Roche LightCycler 480 Instrument and TaqMan probes for MUC1 FAM (4351368 assay ID Hs00159357_m1) and HMBS VIC (4448486-assay ID Hs00609297_m1) (Thermo Fisher Scientific®, Waltham, Mass.), in 5 μL reactions. The fold change effect of the compounds on total MUC1 mRNA was normalized to JQ1 and DMSO controls, as described above.

[5] = target: T1, TMED9 (Homo sapiens, UniProt Q9BVK6); assay: Cellular thermal shift assay (CETSA) for TMED9 in P cells; format: binding; conditions: 5 μM, 1 hour
T1 construct: TMED9 abundance in P cells at escalating temperatures (as indicated) with or without treatment with BRD-4780; endogenous in cells; host or cells: P cells (intact cells treated, then heated and lysed)
T1 sequence (Q9BVK6 38-235): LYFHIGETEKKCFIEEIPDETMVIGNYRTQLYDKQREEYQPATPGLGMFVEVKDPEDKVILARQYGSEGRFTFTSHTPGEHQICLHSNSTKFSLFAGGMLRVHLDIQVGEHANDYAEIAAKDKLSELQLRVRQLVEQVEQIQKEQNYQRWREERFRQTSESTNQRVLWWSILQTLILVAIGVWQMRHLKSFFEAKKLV
Procedure: CETSAs were performed as previously described (Jafari et al., 2014; Reinhard et al., 2015). In brief, P cells were treated in the presence or absence of BRD-4780 for 1 hr, harvested (trypsinized), washed in PBS, resuspended in PBS (containing protease inhibitors) and distributed in 0.2 ml PCR tubes (100 μl; 600,000 cells). Cells were incubated at their designated temperatures for 3 min, then at 25° C. for 3 min and lysed by the addition of 1% NP-40. Immediately thereafter, samples were snap frozen and thawed using thermal cycler set at 25° C. Samples were spun at 20′000×g for 20 min (4° C.) to remove precipitated protein and the supernatant was analyzed by Western blot to examine the TMED9/Nischarin thermal stability.

[6] = Plasma protein binding (equilibrium dialysis); format: in vitro ADME
Procedure: Plasma protein binding was determined by equilibrium dialysis using a Rapid Equilibrium Dialysis (RED) device (Pierce Biotechnology). Each compound was prepared in duplicate at 5 μM in plasma (0.95% acetonitrile, 0.05% DMSO) and added to one side of the membrane with PBS pH 7.4 added to the other side. Compounds were incubated at 37° C. for 5 hr with a 350 rpm orbital shake. After incubation, an aliquot was taken from each side of the membrane and quenched by adding acetontrile to a 3:1 ratio (v/v, ACN:plasma). After quenching, samples were centrifuged (32×G) to pellet precipitated particulates and an aliquot of supernatant was diluted 50/50 (v/v) with water. The resulting solution was analyzed by UPLC-MS/MS with compounds detected by MRM detection on a triple quadrupole mass spectrometer. The compound peak area on the buffer side of the membrane was compared to the peak area on the plasma side of the membrane to determine percent bound. Percent bound in plasma was calculated through the following equations: % free=[area (buffer)/area (plasma)]×100. % bound=100−% free.

[7] = test system: Rhodopsin; assay: BRD-4780 treatment in Rho-P23H/+ mice, rhodopsin staining of retinal sections; format: in vivo, mouse; conditions: 50 mg/Kg/day oral gavage, 28 days
Procedure: Rhodopsin intensity was calculated in retinal sections of Rho/+ mice treated with either vehicle or BRD-4780 (FIGS. 21A and 21B), as compared to wild-type mice treated with vehicle alone. In healthy retina, Rhodopsin primarily localized to the outer segment of the photoreceptors (OS, indicated by the arrow in FIG. 21A), instead of localizing around the photoreceptor nuclei in the outer nuclear layer (ONL, indicated by an asterisk in FIG. 21A). Since there is no Rhodopsin-P23H specific antibody, the amount of Rhodopsin staining in the outer nuclear layer was calculated as a measurement of Rhodopsin accumulation in intracellular compartments. The calculated Rhodopsin staining in the ONL was normalized to the nuclear staining, to correct for differences in cell number.
The effect of BRD-4780 on Rhodopsin accumulation in intracellular compartments of mouse retinae were tested in age-matched Rho-P23H/+ and +/+ male mice. […] Animal weight was observed daily to monitor toxicity. On day 28, mice were sacrificed, and eyes were removed for further analysis.

CC(C)[C@@H]1[C@H]2CC[C@H](C2)[C@H]1N (racemic) [BRD-4780, 2-endo-amino-3-exo-isopropylbicyclo[2.2.1]heptane]
viability of cells expressing P23H mutant [1]: significantly improved | microsomal stability [2]: good microsomal and plasma stability | bioavailability ([3]; male, 129S2/SvPasCrl): 119% | oral bioavailability (in words) ([3]; po): excellent oral bioavailability | effect on MUC1 transcriptional regulation [4]: no effect on MUC1 transcriptional regulation | TMED9 thermal stability (CETSA) [5]: shifted the TMED9 heat denaturation curve to significantly higher temperatures; also recorded: Higher abundance of TMED9 was noted at temperatures >47 °C | protein binding (in words) [6]: low protein binding | estimated percent protein bound ([6]; plasma): 29.7% | rhodopsin accumulation in intracellular compartments of retina [7]: significantly reduced rhodopsin accumulation in intracellular compartments
